How the values were obtained:
[1] = system: sciatic nerve ligation; test: Mechanical allodynia after sciatic nerve ligation (neuropathic pain model), Dynamic Plantar Aesthesiometer; format: in vivo, mice of the C57BL/6J strain; settings: alone
Procedure: The experiments were carried out by using male mice of the C57BL/6J strain with a weight ranging between 25 and 30 g; 10 animals per group were used. The animals were anesthetized with sodium pentobarbital (60 mg/kg, i.p.) and subjected to a surgical procedure of sciatic nerve ligation capable of inducing neuropathic pain in accordance with the method described by Bennet and Xie (1988, Pain; 33:87-107). Sham animals were used as a control. The products were administered p.o. with a tube, suspended in 2% CarboxymethylCellulose. The mechanical allodynia was measured by using the Dynamic Plantar Aesthesiometer equipment of the Company Ugo Basile-Varese, Italy. The values in the table are referred to the weight, expressed in grams, to which the animal object of the experiment, subjected thereto, withdraws its paw when feeling pain.

[2] = system: carrageenan; test: Carrageenan (CAR) test, paw edema volume by plethysmometer; format: in vivo, Wistar male rats; settings: for effect on the formation of the edema by carrageenan (paw volume): 5 mg/kg orally, alone, 30 minutes to 6 hours after carrageenan (FIG. 2a); for reduction of the volume of the legs after CAR: all time points (FIG. 3a)
Procedure: The carrageenan (CAR) test was performed according to a protocol that provides intra-plantar injection of carrageenan in rats and administration of the active ingredient orally by gavage. This is a standard inflammation test. The 1% (weight/volume) carrageenan solution (Sigma) was prepared in sterile saline and subsequently kept at 37° C. for 1 hour to obtain complete solubilization. The paw edema was induced in Wistar male rats by injecting 200 μl of carrageenan into the plantar aponeurosis of the right hind paw. The increase in size of the treated paw was measured prior to induction and 30 minutes after injection of the inflammatory agent using a plethysmometer (model 7140; Ugo Basile). The subsequent paw size measurements were taken at 60-minute intervals with respect to the first measurement, for a total of 7 measurements. The difference between the values obtained from the treated animals and the control animals was calculated and assessed statistically for all six hours.

[3] = system: carrageenan; test: Carrageenan (CAR) test, hyperalgesic response, paw withdrawal latency (Plantar Test); format: in vivo, Wistar male rats; settings: for lengthening of the retraction time compared to the control: 5 mg/kg, individually administered (FIG. 2b); for increase of latency time after CAR: all time points (FIG. 3b)
Procedure: The carrageenan (CAR) test was performed according to a protocol that provides intra-plantar injection of carrageenan in rats and administration of the active ingredient orally by gavage. This is a standard inflammation test. The 1% (weight/volume) carrageenan solution (Sigma) was prepared in sterile saline and subsequently kept at 37° C. for 1 hour to obtain complete solubilization. The paw edema was induced in Wistar male rats by injecting 200 μl of carrageenan into the plantar aponeurosis of the right hind paw. Hyperalgesic response to heat was measured at various time points (0, 30 min, 1, 2, 3, 4, 5 and 6 h) in accordance with the method described by Hargreaves et al. (Pain, 32 (1988), 77-88) using the Plantar Test 7371 (Ugo Basile, Italy). In short, the animals were allowed to move freely in an open transparent plastic chamber. After a period of acclimatization, a heat source radiating infrared light (IR 60) was placed under the glass floor and concentrated on the hind paw. When the animal felt pain and withdrew its paw, the source was turned off and the time measured was recorded.

[4] = system: sciatic nerve ligation; settings: 100 mg/kg; cited from earlier work
[5] = system: sciatic nerve ligation; settings: 10 mg/kg; cited from earlier work

In the case of `CC(=O)O[C@H](CC(=O)[O-])C[N+](C)(C)C` [LAC, L-Acetylcarnitine], the “alleviation of the neuropathic pain (mechanical allodynia)” value (from here on “alleviation of the neuropathic pain”) ([1]; 10 mg/kg p.o.) was “do not cause a significant activity”, the “alleviation of the neuropathic pain” value ([1]; 100 mg/kg p.o.) was “significant alleviation” and the “effect on the formation of the edema by carrageenan (paw volume)” value [2] was “does not have a significant effect”. For the same molecule, the “reduction of the volume of the legs after CAR” value ([2]; LAC 3.0 mg/kg oral) was “did not achieve a significant reduction”, the “reduction of the volume of the legs after CAR” value ([2]; LAC 5.0 mg/kg oral) was “did not achieve a significant reduction” and the “lengthening of the retraction time compared to the control” value [3] was “do not show any effect”. For the same molecule, the “increase of latency time after CAR” value ([3]; LAC 3.0 mg/kg oral) was “did not achieve a significant increase”, the “increase of latency time after CAR” value ([3]; LAC 5.0 mg/kg oral) was “did not achieve a significant increase” and the mechanical allodynia [4] was “decrease the mechanical allodynia”.
For `CCCCCCCCCCCCCCCC(=O)NCCO` [palmitoylethanolamide], the “effect in the neuropathic pain model” value [5] is given as “particularly relevant effect”.
In the case of `CCCCCCCCCCCCCCCC(=O)NCCO` [PEA-m, palmitoylethanolamide], the “effect on the formation of the edema by carrageenan (paw volume)” value [2] was “does not have a significant effect” and the “lengthening of the retraction time compared to the control” value [3] was “do not show any effect”.
In the case of `CCCCCCCCCCCCCCCC(=O)NCCO` [PEA-um, palmitoylethanolamide], the “alleviation of the neuropathic pain” value ([1]; 5 mg/kg p.o.) was “do not cause a significant activity” and the “alleviation of the neuropathic pain” value ([1]; 10 mg/kg p.o.) was “significant alleviation”.

From patent publication US12364678B2, “Pharmaceutical composition comprising palmitoylethanolamide and L- Acetylcarnitine” (EPITECH GROUP S.P.A., priority 2014, dated 2025)
